# Data published in PMC8161026, “Synthesis and Anticancer Activity Evaluation of 5-[2-Chloro-3-(4-nitrophenyl)-2-propenylidene]-4-thiazolidinones” (Molecules, 2021).
# Assays:
# [1] = test system: OVCAR-3; test: NCI DTP 60 cell line screen, SRB
# [2] = test system: NCI-H23; test: cells; details: Homo sapiens, NCI-H23, 48 h
# [3] = test system: A549/ATCC; test: cells; details: Homo sapiens, A549, 48 h
# [4] = test system: SK-MEL-28; test: cells; details: Homo sapiens, SK-MEL-28, 48 h
# [5] = test system: A498; test: NCI DTP 60 cell line screen, SRB
# [6] = test system: DU-145; details: DU-145 (Prostate Cancer), 48 h, SRB
# [7] = test system: SK-MEL-5; test: NCI DTP 60 cell line screen, SRB
# [8] = test system: HOP-62; details: HOP-62 (Non-Small Cell Lung Cancer), 48 h, SRB
# [9] = test system: SW-620; details: SW-620 (Colon Cancer), 48 h, SRB
# [10] = test system: MALME-3M; test: NCI DTP 60 cell line screen, SRB; details: 48 h
# [11] = test system: SK-OV-3; test: NCI DTP 60 cell line screen, SRB
# [12] = test system: SF-268; test: NCI DTP 60 cell line screen, SRB
# [13] = test system: NCI-H460; details: NCI-H460 (Non-Small Cell Lung Cancer), 48 h, SRB
# [14] = test system: MOLT-4; test: cells; details: Homo sapiens, MOLT-4, 48 h
# [15] = test system: T-47D; test: cells; details: Homo sapiens, T47D, 48 h
# [16] = test system: SR
# [17] = test system: SNB-75; details: SNB-75 (CNS Cancer), 48 h, SRB
# [18] = test system: LOX IMVI; details: LOX IMVI (Melanoma), 48 h, SRB
# [19] = test system: NCI-H226; test: NCI DTP 60 cell line screen, SRB
# [20] = test system: SN12C; details: SN12C (Renal Cancer), 48 h, SRB
# [21] = test system: NCI-H460; test: cells; details: Homo sapiens, NCI-H460, 48 h
# [22] = test system: NCI-H23; details: NCI-H23 (Non-Small Cell Lung Cancer), 48 h, SRB
# [23] = test system: normal human blood lymphocytes; test: in vitro
# Description: (§1) Another part of our study was to determine the influence of compounds 2f, 2i, 2j, and 2h on normal human blood lymphocytes (Figure 5). […] Thus, normal blood lymphocytes are blood cells, as well as cells of leukemia cell lines, therapeutic index (TI) of compounds 2f, 2h, and 2j was calculated as GI50 (normal blood lymphocyte)/GI50 (leukemia cell line) (Table 5).
# (§2) Figure 5 Human lymphocyte viability after 48 h of 2f, 2i, 2j, 2h, and Ciminalum drug exposure was estimated by MTT assay.
# (§3) The assay was performed by using 3-(4,5-dimethylthiazole-2-yl)- 2,5-diphenyltetrazolium bromide (MTT). Confluent cells, cultured for 24 h with 0.1, 1, 5, 10, 20, 30, and 100 µM concentrations of studied compounds in 24-well plates were washed with PBS. MTT was dissolved in PBS, and 25 µL were added to each well. Plates were incubated for 4 h at 37 °C in 5% CO2 in an incubator. The medium with MTT was removed, and 1 mL of DMSO was added to the attached cells. Furthermore, cells were incubated for 5–10 min in RT and then 10 µl of Sorensen buffer was added to each well. The absorbance of converted dye in living cells was measured at a wavelength of 570 nm. The cell viability of breast cancer cells, gastric cancer cells, and human colon cancer cells cultured in the presence of ligands was calculated as percent of control cells.
# (§4) First, 20 mL of venous blood was taken from volunteers (Ethical protocol number 2, 27 January 2019) and collected in the presence of 200 μL of undiluted fresh heparin (1/100). Sterile blood was diluted 2 times with 0.9% NaCl under the sterile conditions. Isolation of lymphocytes was performed in a density gradient of ficol-verografin using the protocol of the manufacturer (Lympoprep, NYCOMED PHARMA AS, Oslo Norway). The resulting lymphocytes were resuspended in the RPMI-1640 medium and cultured for several days (up to 10 days). To separate the lymphocytes from the monocytes, cell suspension was left for 24 h. After 24 h of culture, monocytes were attached, while lymphocytes were transferred to a fresh Falcon tube (15 mL). To stimulate the proliferation of lymphocytes, they were cultured on CD3+ antibody-coated plastic plate in the RPMI-1640 medium supplemented with 20% FBS.
# [24] = in vitro; details: human
# Description: as §1, §2, §3, §4
smiles,measurement,setting,value
"O=C(O)C(Cc1ccccc1)N1C(=O)/C(=C/C(Cl)=C/c2ccc([N+](=O)[O-])cc2)SC1=S (stereo not drawn) [Compound 2j, 2-{5-[(Z,2Z)-2-Chloro-3-(4-nitrophenyl)-2-propenylidene]-4-oxo-2-thioxothiazolidin-3-yl}-3-phenylpropanoic acid]",GI50,"[1]; Homo sapiens, OVCAR-3, 48 h",1.76 µM
same,CC50,"[1]; Homo sapiens, OVCAR-3, 48 h, read-out: LC50",6.98 µM
same,TGI,"[1]; OVCAR-3 (Ovarian Cancer), 48 h, SRB",3.51 µM
same,GI50,[2],2.13 µM
same,CC50,[2]; read-out: LC50,> 100 µM
same,GI50,[3],3.46 µM
same,CC50,[3]; read-out: LC50,> 100 µM
same,GI50,[4],2.16 µM
same,CC50,[4]; read-out: LC50,11.6 µM
same,TGI,"[5]; A498 (Renal Cancer), 48 h, SRB",3.24 µM
same,GI50,"[5]; Homo sapiens, A498, 48 h",1.65 µM
same,CC50,"[5]; Homo sapiens, A498, 48 h, read-out: LC50",6.37 µM
same,TGI,[6],4.56 µM
same,GI50,"[7]; Homo sapiens, SK-MEL-5, 48 h",1.68 µM
same,CC50,"[7]; Homo sapiens, SK-MEL-5, 48 h, read-out: LC50",5.6 µM
same,TGI,"[7]; SK-MEL-5 (Melanoma), 48 h, SRB",3.06 µM
same,TGI,[8],6.75 µM
same,TGI,[9],4.39 µM
same,GI50,"[10]; Homo sapiens, Malme-3M",2.13 µM
same,CC50,"[10]; Homo sapiens, Malme-3M, read-out: LC50",> 100 µM
same,TGI,"[10]; MALME-3M (Melanoma), SRB",4.82 µM
same,GI50,"[11]; Homo sapiens, SK-OV-3, 48 h",4.13 µM
same,CC50,"[11]; Homo sapiens, SK-OV-3, 48 h, read-out: LC50",> 100 µM
same,TGI,"[11]; SK-OV-3 (Ovarian Cancer), 48 h, SRB",> 100 µM
same,GI50,"[12]; Homo sapiens, SF-268, 48 h",2.21 µM
same,CC50,"[12]; Homo sapiens, SF-268, 48 h, read-out: LC50",> 100 µM
same,TGI,"[12]; SF-268 (CNS Cancer), 48 h, SRB",> 100 µM
same,TGI,[13],> 100 µM
same,GI50,[14],3.14 µM
same,CC50,[14]; read-out: LC50,> 100 µM
same,GI50,[15],1.5 µM
same,CC50,[15]; read-out: LC50,> 100 µM
same,TI (Therapeutic Index),[16]; GI50 (normal blood lymphocyte)/GI50 (SR),19.99
same,TGI,"[16]; SR (Leukemia), 48 h, SRB",> 100 µM
same,TGI,[17],5.37 µM
same,TGI,[18],3.26 µM
same,GI50,"[19]; Homo sapiens, NCI-H226, 48 h",1.58 µM
same,CC50,"[19]; Homo sapiens, NCI-H226, 48 h, read-out: LC50",6.76 µM
same,TGI,"[19]; NCI-H226 (Non-Small Cell Lung Cancer), 48 h, SRB",3.27 µM
same,TGI,[20],> 100 µM
same,GI50,[21],2.19 µM
same,CC50,[21]; read-out: LC50,> 100 µM
same,TGI,[22],4.86 µM
same,toxicity toward normal human blood lymphocytes,[23],low toxicity
same,GI50 at 48 h,[24],49 µM
